Key:
Experiment in all cases: relative viability (nuclei count vs DMSO), 5 days (fraction); higher = more cells survive
Alisertib + Trametinib = compound: COc1cc(Nc2ncc3c(n2)-c2ccc(Cl)cc2C(c2c(F)cccc2OC)=NC3)ccc1C(=O)O [Alisertib] + CC(=O)Nc1cccc(-n2c(=O)n(C3CC3)c(=O)c3c(Nc4ccc(I)cc4F)n(C)c(=O)c(C)c32)c1 [Trametinib] (partner 0.02 µM)
Procedure, shortened: (§1)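 For relative viability, nuclei counts in treated wells were divided by those in vehicle wells. Lung cancer cell lines had been pin-tool dosed in 1536-well plates the day after seeding and cultured for 5 days, then fixed and stained in one step (final 0.05% Triton X-100, 1% formaldehyde, 1 ug/ml Hoechst) and imaged at 4×. Doses were one drug alone or a fixed anchor-drug dose plus five library-drug doses (not always all listed) in √10 steps, and values are duplicate-plate medians.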

Alisertib + Lapatinib = compound: COc1cc(Nc2ncc3c(n2)-c2ccc(Cl)cc2C(c2c(F)cccc2OC)=NC3)ccc1C(=O)O [Alisertib] + CS(=O)(=O)CCNCc1ccc(-c2ccc3ncnc(Nc4ccc(OCc5cccc(F)c5)c(Cl)c4)c3c2)o1 [Lapatinib] (partner 2 µM)
Procedure, shortened: as §1

Alisertib + Phenformin = compound: COc1cc(Nc2ncc3c(n2)-c2ccc(Cl)cc2C(c2c(F)cccc2OC)=NC3)ccc1C(=O)O [Alisertib] + N=C(N)NC(=N)NCCc1ccccc1 [Phenformin] (partner 250 µM)
Procedure, shortened: as §1

Alisertib + Olaparib = compound: COc1cc(Nc2ncc3c(n2)-c2ccc(Cl)cc2C(c2c(F)cccc2OC)=NC3)ccc1C(=O)O [Alisertib] + O=C(c1cc(Cc2n[nH]c(=O)c3ccccc23)ccc1F)N1CCN(C(=O)C2CC2)CC1 [Olaparib] (partner 8 µM)
Procedure, shortened: as §1

| Cell Line | relative viability (Alisertib + Trametinib; first compound 0.005 µM) | relative viability (Alisertib + Trametinib; first compound 0.01581 µM) | relative viability (Alisertib + Trametinib; first compound 0.05 µM) | relative viability (Alisertib + Trametinib; first compound 0.1581 µM) | relative viability (Alisertib + Trametinib; first compound 0.5 µM) | relative viability (Alisertib + Lapatinib; first compound 0.005 µM) | relative viability (Alisertib + Lapatinib; first compound 0.01581 µM) | relative viability (Alisertib + Lapatinib; first compound 0.05 µM) | relative viability (Alisertib + Lapatinib; first compound 0.1581 µM) | relative viability (Alisertib + Lapatinib; first compound 0.5 µM) | relative viability (Alisertib + Phenformin; first compound 0.005 µM) | relative viability (Alisertib + Phenformin; first compound 0.01581 µM) | relative viability (Alisertib + Phenformin; first compound 0.05 µM) | relative viability (Alisertib + Phenformin; first compound 0.1581 µM) | relative viability (Alisertib + Phenformin; first compound 0.5 µM) | relative viability (Alisertib + Olaparib; first compound 0.005 µM) | relative viability (Alisertib + Olaparib; first compound 0.01581 µM) | relative viability (Alisertib + Olaparib; first compound 0.05 µM) | relative viability (Alisertib + Olaparib; first compound 0.1581 µM) | relative viability (Alisertib + Olaparib; first compound 0.5 µM) |
| --- | --- | --- | --- | --- | --- | --- | --- | --- | --- | --- | --- | --- | --- | --- | --- | --- | --- | --- | --- | --- |
| LU99A | 0.507 | 0.473 | 0.181 | 0.212 | 0.195 | 0.855 | 0.852 | 0.651 | 0.214 | 0.186 | 0.755 | 0.798 | 0.658 | 0.3 | 0.239 | 0.253 | 0.223 | 0.189 | 0.151 | 0.133 |
| HCC-366 | 0.306 | 0.23 | 0.0254 | 0.0345 | 0.0398 | 1.02 | 0.31 | 0.0171 | 0.0127 | 0.0262 | 0.552 | 0.202 | 0.138 | 0.0286 | 0.0335 | 0.32 | 0.173 | 0.0172 | 0.0252 | 0.0457 |
| EKVX | 0.319 | 0.37 | 0.18 | 0.16 | 0.155 | 0.211 | 0.238 | 0.16 | 0.126 | 0.111 | 0.209 | 0.209 | 0.135 | 0.129 | 0.131 | 0.848 | 0.674 | 0.282 | 0.207 | 0.203 |
| NCI-H522 | 0.779 | 0.777 | 0.728 | 0.551 | 0.445 |  |  |  |  |  | 0.521 | 0.56 | 0.75 | 0.419 | 0.493 | 0.604 | 0.591 | 0.453 | 0.452 | 0.437 |
| NCI-H1755 | 0.742 | 0.712 | 0.474 | 0.426 | 0.305 | 0.946 | 0.945 | 0.833 | 0.299 | 0.316 | 0.558 | 0.498 | 0.517 | 0.397 | 0.262 | 0.814 | 0.792 | 0.532 | 0.509 | 0.287 |
| NCI-H650 | 0.829 | 0.684 | 0.44 | 0.229 | 0.208 | 0.767 | 0.558 | 0.266 | 0.301 | 0.208 | 0.404 | 0.377 | 0.258 | 0.202 | 0.168 | 0.366 | 0.299 | 0.171 | 0.164 | 0.154 |
| LC-2-ad | 0.826 | 0.698 | 0.517 | 0.353 | 0.191 | 0.681 | 0.465 | 0.244 | 0.152 | 0.118 | 0.474 | 0.426 | 0.401 | 0.295 | 0.304 | 0.642 | 0.523 | 0.211 | 0.245 | 0.192 |
| NCI-H1793 | 0.373 | 0.285 | 0.192 | 0.207 | 0.188 | 0.887 | 0.376 | 0.41 | 0.22 | 0.27 | 0.312 | 0.233 | 0.291 | 0.191 | 0.148 | 0.798 | 0.354 | 0.296 | 0.273 | 0.132 |

From the supplement of paper PMC10307832
